Assays:
[1] = target: T1, Muscarinic acetylcholine receptor M4 (Rattus norvegicus, UniProt P08485)
T1 sequence (P08485 whole entry): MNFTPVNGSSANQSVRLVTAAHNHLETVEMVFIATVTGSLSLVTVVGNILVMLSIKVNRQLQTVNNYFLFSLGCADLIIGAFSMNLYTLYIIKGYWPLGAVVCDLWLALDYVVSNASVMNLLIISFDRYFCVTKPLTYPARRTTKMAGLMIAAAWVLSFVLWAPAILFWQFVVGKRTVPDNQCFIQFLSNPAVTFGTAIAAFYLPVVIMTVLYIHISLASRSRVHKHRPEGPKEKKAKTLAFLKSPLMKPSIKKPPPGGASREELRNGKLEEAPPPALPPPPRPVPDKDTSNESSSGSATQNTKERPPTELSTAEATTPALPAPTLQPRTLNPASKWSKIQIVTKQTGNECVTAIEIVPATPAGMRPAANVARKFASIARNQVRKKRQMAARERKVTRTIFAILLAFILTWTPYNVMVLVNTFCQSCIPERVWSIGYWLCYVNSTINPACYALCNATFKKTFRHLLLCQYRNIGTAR

[2] = target: T2, Muscarinic acetylcholine receptor M1 (Rattus norvegicus, UniProt P08482)
T2 sequence (P08482 whole entry): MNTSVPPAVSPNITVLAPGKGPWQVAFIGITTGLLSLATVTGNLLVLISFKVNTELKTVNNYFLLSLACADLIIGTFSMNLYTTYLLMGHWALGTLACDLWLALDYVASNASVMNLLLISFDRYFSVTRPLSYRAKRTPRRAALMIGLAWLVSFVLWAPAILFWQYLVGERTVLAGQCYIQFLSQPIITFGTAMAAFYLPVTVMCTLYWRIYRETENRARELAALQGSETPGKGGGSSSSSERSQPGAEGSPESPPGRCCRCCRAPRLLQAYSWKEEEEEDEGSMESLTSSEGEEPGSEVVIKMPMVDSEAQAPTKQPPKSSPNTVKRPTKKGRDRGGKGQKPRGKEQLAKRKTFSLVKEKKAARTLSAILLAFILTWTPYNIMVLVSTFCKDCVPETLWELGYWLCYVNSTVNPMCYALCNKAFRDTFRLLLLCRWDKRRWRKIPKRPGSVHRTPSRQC

Compound | Ki [1] [nM] | Ki [2] [nM]
C[N+]1(C)CCC(OC(=O)C(c2ccccc2)c2ccccc2)CC1 | 1.4 | 
CCN(CC)CC1CCCCN1CC(=O)N1c2ccccc2C(=O)Nc2cccnc21 (stereo not drawn) [(AF-DX 116) 11-[2-(2-Diethylaminomethyl-piperidin-1-yl)-acetyl]-5,11-dihydro-benzo[e]pyrido[3,2-b][1,4]diazepin-6-one] | 614 | 1200
O[Si](CCCN1CCCCC1)(c1ccccc1)C1CCCCC1 (stereo not drawn) [HHSiD] | 47 | 60
COc1ccccc1CNCCCCCCNCCCCCCCCNCCCCCCNCc1ccccc1OC [METHOCTRAMINE] | 410 | 
CCN(CCCC(=O)C1CCCCC1)C(C)Cc1ccc(OC)cc1 (stereo not drawn) [NSC_42470] | 7.8 | 5.9

Source: BindingDB's records for PubMed 1646322 (Mayo Clinic, 1991)
